Measured values reported in paper PMC11618052, “Design, synthesis, and antiproliferative activity of new 1,2,3-triazole/quinazoline-4-one hybrids as dual EGFR/BRAF^V600E inhibitors” (RSC Advances, 2024).

Experiments:
[1] = Cell viability MTT assay on MCF-10A normal cells; type: cell-based; settings: human, MCF-10A normal mammary gland epithelial cells, MCF-10A cells, four days of incubation
Protocol: The viability of new compounds 8a–t was evaluated using the MCF-10A normal human mammary gland epithelial cell line. The cell viability of compounds 8a–t was examined using the MTT assay[36] after four days of incubation with MCF-10A cells. For more details, see Appendix A (ESI file). ^† […]
We evaluated the viability of new compounds 8a–t using the MCF-10A normal human mammary gland epithelial cell line. The cell viability of compounds 8a–t was examined using the MTT assay[36] after four days of incubation with MCF-10A cells.
4.2. Biological evaluation
4.2.1. Cytotoxic activity using MTT Assay and evaluation of IC 50
MTT assay was carried out to study the effect of compounds on mammary epithelial cells (MCF-10A). The medium in which cells were propagated contained Dulbecco's modified Eagle's medium (DMEM)/ Ham's F-12 medium (1:1) supplemented with epidermal growth factor (20 ng/mL), hydrocortisone (500 ng/mL), insulin (10 μg/mL), 2 mM glutamine and 10% foetal calf serum.
After every 2-3 days, the cells were passaged using trypsin ethylenediamine tetra acetic acid (EDTA). The cells were seeded at a density of 10^4 cells mL-1 in flat-bottomed culture plates containing 96 wells each. After 24 h, medium was removed from the plates and the compounds in (in 0.1% DMSO) were added (in 200 μL medium to yield a final concentration of 0.1% v/v) to the wells of plates. A single compound was designated with four wells followed by incubation of plates for 96h at 37°C. After incubation, medium was removed completely from the plates followed by addition of MTT (0.4 mg/mL in medium) to each well and subsequent incubation of plates for 3h. MTT (along with the medium) was removed and DMSO (150μL) was added to each well of the culture plates, followed by vortexing and subsequent measurement of absorbance (at 540 nm) using microplate reader. The data are shown as percentage inhibition of proliferation in comparison with controls containing 0.1% DMSO. […]

lung cancer (A-549) = assay: Antiproliferative MTT assay, A-549; type: cell-based; settings: Homo sapiens, A549, A-549 lung cancer cells, read-out: Antiproliferative activity IC50 ± SEM, A-549
Protocol: (§1) The median inhibitory concentration (IC50) and GI50 (mean IC50) for the four cancer cell lines were calculated. Appendix A ^† contains more details. […]

breast cancer (MCF-7) = assay: Antiproliferative MTT assay, MCF-7; type: cell-based; settings: Homo sapiens, MCF7, MCF-7 breast cancer cells, read-out: Antiproliferative activity IC50 ± SEM, MCF-7
Protocol: as §1

[2] = test system: pancreatic cancer (Panc-1); assay: Antiproliferative MTT assay, Panc-1; type: cell-based; settings: Homo sapiens, Panc-1 pancreatic cancer cells, read-out: Antiproliferative activity IC50 ± SEM, Panc-1
Protocol: as §1

colon cancer (HT-29) = assay: Antiproliferative MTT assay, HT-29; type: cell-based; settings: Homo sapiens, HT-29 colon cancer cells, read-out: Antiproliferative activity IC50 ± SEM, HT-29
Protocol: as §1

[3] = test system: four human cancer cell lines (A-549, MCF-7, Panc-1, HT-29); assay: Antiproliferative MTT assay, mean over the four cancer cell lines; type: cell-based; settings: for GI50: mean IC50 over A-549, MCF-7, Panc-1, HT-29
Protocol: as §1

EGFR = biological target: T1, EGFR (Homo sapiens, UniProt P00533); assay: EGFR-TK inhibitory assay; type: biochemical; settings: read-out: EGFR inhibition IC50 ± SEM
T1 construct: 645–1186; His6 (N); made in house; host or cells: Sf-9 insect cells (baculovirus; pBlueBacHis2B / pFASTBacHTc)
T1 sequence (P00533 669-1210): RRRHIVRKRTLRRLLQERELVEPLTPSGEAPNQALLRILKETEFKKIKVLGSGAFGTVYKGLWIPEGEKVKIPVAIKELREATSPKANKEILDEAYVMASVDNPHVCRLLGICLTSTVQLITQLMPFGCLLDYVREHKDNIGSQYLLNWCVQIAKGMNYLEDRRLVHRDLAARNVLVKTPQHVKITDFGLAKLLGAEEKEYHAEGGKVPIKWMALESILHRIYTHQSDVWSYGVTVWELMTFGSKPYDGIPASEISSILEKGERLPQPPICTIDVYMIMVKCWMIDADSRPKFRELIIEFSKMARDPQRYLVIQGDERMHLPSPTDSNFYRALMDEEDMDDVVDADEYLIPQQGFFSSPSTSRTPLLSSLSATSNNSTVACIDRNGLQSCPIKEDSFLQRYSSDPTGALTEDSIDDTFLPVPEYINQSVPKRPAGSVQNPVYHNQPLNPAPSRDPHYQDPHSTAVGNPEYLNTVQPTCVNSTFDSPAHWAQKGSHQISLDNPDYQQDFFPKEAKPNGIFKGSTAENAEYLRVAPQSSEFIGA
Protocol: Sf-9 cells were infected for 72h for protein expression. […]
centrifugation for 20 min.
Histidine-linked proteins were first eluted with 250 and then […]
using wash buffer. Europium-tagged antiphosphotyrosine antibody (75 µL, 400 ng) was added to each well followed by incubation of 1h and then washing of the plates using buffer. The enhancement solution was added to each well and the signal was recorded at excitation and […]
The autophosphorylation percentage inhibition by compounds was calculated using the following equation: […]

BRAF^V600E = BRAF^V600E kinase inhibitory assay
Sequence of BRAF^V600E (P28028 whole entry V585E): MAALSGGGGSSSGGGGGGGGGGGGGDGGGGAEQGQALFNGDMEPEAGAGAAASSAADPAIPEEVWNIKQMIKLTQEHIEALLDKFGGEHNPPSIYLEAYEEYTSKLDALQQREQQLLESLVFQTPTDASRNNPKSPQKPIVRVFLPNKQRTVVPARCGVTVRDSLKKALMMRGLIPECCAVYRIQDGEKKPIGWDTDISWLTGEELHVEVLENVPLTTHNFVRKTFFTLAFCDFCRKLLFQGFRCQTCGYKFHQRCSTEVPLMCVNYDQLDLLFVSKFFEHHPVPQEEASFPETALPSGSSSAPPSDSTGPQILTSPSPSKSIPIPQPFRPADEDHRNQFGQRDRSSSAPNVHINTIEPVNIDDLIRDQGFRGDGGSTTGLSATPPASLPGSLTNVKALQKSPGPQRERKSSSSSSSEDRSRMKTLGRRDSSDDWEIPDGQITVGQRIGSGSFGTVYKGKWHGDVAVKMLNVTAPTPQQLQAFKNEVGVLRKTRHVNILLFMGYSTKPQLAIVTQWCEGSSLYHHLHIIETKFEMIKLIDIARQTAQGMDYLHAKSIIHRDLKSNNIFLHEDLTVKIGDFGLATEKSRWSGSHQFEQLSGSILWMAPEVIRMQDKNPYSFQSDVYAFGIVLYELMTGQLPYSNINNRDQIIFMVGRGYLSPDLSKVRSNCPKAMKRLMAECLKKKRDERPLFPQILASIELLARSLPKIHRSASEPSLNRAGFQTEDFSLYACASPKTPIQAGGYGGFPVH
Protocol: V600E mutant BRAF kinase assay was performed to investigate the activity of tested compounds against BRAF. Mouse full-length GST-tagged BRAFV600E (7.5 ng, Invitrogen, PV3849) was pre-incubated with drug (1 µL) and assay dilution buffer (4 µL) for 60 min at 25 °C. In assay dilution buffer, a solution (5 µL) containing MgCl2 (30 mM), ATP (200 µM), recombinant human full length (200 ng) and N-terminal His-tagged MEK1 (Invitrogen) was added to start the assay, subsequent to incubation for 25 min at 25 °C. The assay was stopped using 5X protein denaturing buffer (LDS) solution (5 µL). To further denature the protein, heat (70° C) was applied for 5 min.
10 µL of each reaction was loaded into the precast plates and electrophoresis was allowed to proceed. After completion of electrophoresis, the front part of the precast gel plate (holding hot ATP) was cut and afterwards cast-off. The dried gel was developed using a phosphor screen. A

Compound | viability at 4 days, 50 µM [1] [%] | IC50 (lung cancer (A-549)) [nM] | IC50 (breast cancer (MCF-7)) [nM] | IC50 [2] [nM] | IC50 (colon cancer (HT-29)) [nM] | GI50 ([3]; Homo sapiens) [nM] | IC50 (EGFR) [nM] | IC50 (BRAF^V600E) [nM] | Fold less potent than compound 8g (GI50) ([3]; GI50 versus methoxy derivative 8g) | GI50 [3] [nM]
Cc1ccc(-n2cc(CSc3nc4ccccc4c(=O)n3-c3cccc(C)c3)nn2)cc1 [Compound 8l, 2-(((1-(p-Tolyl)-1H-1,2,3-triazol-4-yl)methyl)thio)-3-(m-tolyl)quinazolin-4(3H)-one] | 87 | 33 ± 2 | 29 ± 2 | 36 ± 2 | 35 ± 2 | 33 | 83 ± 5 | 64 ± 5 |  | 
C#Cc1cccc(Nc2ncnc3cc(OCCOC)c(OCCOC)cc23)c1 [Erlotinib, reference compound] |  | 30 ± 3 | 40 ± 3 | 30 ± 3 | 30 ± 3 |  |  |  |  | 
Cc1ccc(-n2c(SCc3cn(-c4ccc(Cl)cc4)nn3)nc3ccccc3c2=O)cc1 [Compound 8f, 2-(((1-(4-Chlorophenyl)-1H-1,2,3-triazol-4-yl)methyl)thio)-3-(p-tolyl)quinazolin-4(3H)-one] | 87 | 37 ± 3 | 34 ± 3 | 38 ± 3 | 39 ± 3 | 37 | 89 ± 5 | 69 ± 5 |  | 
CCn1c(SCc2cn(-c3ccc(C)cc3)nn2)nc2ccccc2c1=O [Compound 8p, 2-(((1-(p-Tolyl)-1H-1,2,3-triazol-4-yl)methyl)thio)-3-ethylquinazolin-4(3H)-one] | 86 | 82 ± 7 | 77 ± 7 | 84 ± 7 | 85 ± 7 | 82 |  |  |  | 
Cc1cccc(-n2c(SCc3cn(-c4ccccc4)nn3)nc3ccccc3c2=O)c1 [Compound 8i, 2-(((1-Phenyl-1H-1,2,3-triazol-4-yl)methyl)thio)-3-(m-tolyl)quinazolin-4(3H)-one] | 90 | 65 ± 5 | 59 ± 5 | 68 ± 6 | 68 ± 6 | 65 |  |  |  | 
CCn1c(SCc2cn(-c3ccccc3)nn2)nc2ccccc2c1=O [Compound 8m, 2-(((1-Phenyl-1H-1,2,3-triazol-4-yl)methyl)thio)-3-ethyl quinazolin-4(3H)-one] | 90 | 72 ± 6 | 68 ± 6 | 74 ± 6 | 74 ± 6 | 72 |  |  |  | 
Cc1ccc(-n2cc(CSc3nc4ccccc4c(=O)n3-c3ccccc3)nn2)cc1 [Compound 8d, 2-(((1-(p-Tolyl)-1H-1,2,3-triazol-4-yl)methyl)thio)-3-phenylquinazolin-4(3H)-one] | 89 | 53 ± 4 | 48 ± 4 | 56 ± 4 | 56 ± 4 | 53 |  |  |  | 
CCn1c(SCc2cn(-c3ccc(Cl)cc3)nn2)nc2ccccc2c1=O [Compound 8n, 2-(((1-(4-Chlorophenyl)-1H-1,2,3-triazol-4-yl)methyl)thio)-3-ethyl quinazolin-4(3H)-one] | 92 | 75 ± 6 | 71 ± 6 | 78 ± 6 | 79 ± 6 | 76 |  |  |  | 
CCn1c(SCc2cn(-c3ccc(OC)cc3)nn2)nc2ccccc2c1=O [Compound 8o, 2-(((1-(4-Methoxyphenyl)-1H-1,2,3-triazol-4-yl)methyl)thio)-3-ethyl quinazolin-4(3H)-one] | 89 | 69 ± 5 | 63 ± 5 | 74 ± 6 | 74 ± 6 | 70 |  |  |  | 
Cc1ccc(-n2c(SCc3cn(-c4ccccc4)nn3)nc3ccccc3c2=O)cc1 [Compound 8e, 2-(((1-Phenyl-1H-1,2,3-triazol-4-yl)methyl)thio)-3-(p-tolyl)quinazolin-4(3H)-one] | 90 | 88 ± 8 | 85 ± 8 | 92 ± 8 | 92 ± 8 | 89 |  |  | 4 | 
C=CCn1c(SCc2cn(-c3ccc(C)cc3)nn2)nc2ccccc2c1=O [Compound 8t, 2-(((1-(p-Tolyl)-1H-1,2,3-triazol-4-yl)methyl)thio)-3-allyl quinazolin-4(3H)-one] | 90 | 84 ± 7 | 80 ± 7 | 87 ± 7 | 87 ± 7 | 85 |  |  |  | 
C=CCn1c(SCc2cn(-c3ccc(OC)cc3)nn2)nc2ccccc2c1=O [Compound 8s, 2-(((1-(4-Methoxyphenyl)-1H-1,2,3-triazol-4-yl)methyl)thio)-3-allyl quinazolin-4(3H)-one] | 91 | 57 ± 5 | 53 ± 4 | 59 ± 5 | 59 ± 5 | 57 |  |  |  | 
COc1ccc(-n2cc(CSc3nc4ccccc4c(=O)n3-c3cccc(C)c3)nn2)cc1 [Compound 8k, 2-(((1-(4-Methoxyphenyl)-1H-1,2,3-triazol-4-yl)methyl)thio)-3-(m-tolyl)quinazolin-4(3H)-one] | 85 | 42 ± 3 | 39 ± 3 | 46 ± 3 | 45 ± 3 | 43 |  |  |  | 
Cc1cccc(-n2c(SCc3cn(-c4ccc(Cl)cc4)nn3)nc3ccccc3c2=O)c1 [Compound 8j, 2-(((1-(4-Chlorophenyl)-1H-1,2,3-triazol-4-yl)methyl)thio)-3-(m-tolyl)quinazolin-4(3H)-one] | 87 | 29 ± 2 | 26 ± 2 | 31 ± 2 | 30 ± 2 | 33 | 78 ± 5 | 61 ± 5 |  | 29
O=c1c2ccccc2nc(SCc2cn(-c3ccccc3)nn2)n1-c1ccccc1 [Compound 8a, 2-(((1-Phenyl-1H-1,2,3-triazol-4-yl)methyl)thio)-3-phenyl quinazolin-4(3H)-one] | 89 | 61 ± 5 | 56 ± 5 | 64 ± 5 | 64 ± 5 | 61 |  |  |  | 
O=c1c2ccccc2nc(SCc2cn(-c3ccc(Cl)cc3)nn2)n1-c1ccccc1 [Compound 8b, 2-(((1-(4-Chlorophenyl)-1H-1,2,3-triazol-4-yl)methyl)thio)-3-phenyl quinazolin-4(3H)-one] | 90 | 40 ± 3 | 36 ± 3 | 42 ± 3 | 44 ± 3 | 41 |  |  |  | 
C=CCn1c(SCc2cn(-c3ccccc3)nn2)nc2ccccc2c1=O [Compound 8q, 2-(((1-Phenyl-1H-1,2,3-triazol-4-yl)methyl)thio)-3-allyl quinazolin-4(3H)-one] | 87 | 93 ± 8 | 89 ± 8 | 96 ± 8 | 96 ± 8 | 94 |  |  |  | 
C=CCn1c(SCc2cn(-c3ccc(Cl)cc3)nn2)nc2ccccc2c1=O [Compound 8r, 2-(((1-(4-Chlorophenyl)-1H-1,2,3-triazol-4-yl)methyl)thio)-3-allyl quinazolin-4(3H)-one] | 90 | 79 ± 6 | 75 ± 6 | 81 ± 7 | 84 ± 7 | 80 |  |  |  | 
COc1ccc(-n2cc(CSc3nc4ccccc4c(=O)n3-c3ccccc3)nn2)cc1 [Compound 8c, 2-(((1-(4-Methoxyphenyl)-1H-1,2,3-triazol-4-yl)methyl)thio)-3-phenylquinazolin-4(3H)-one] | 86 | 47 ± 3 | 42 ± 3 | 49 ± 3 | 49 ± 3 | 47 |  |  |  | 
